Laboratory results taken from ChEMBL document CHEMBL1201862, “PubChem BioAssay data set” (2004).
Active and inactive are the calls of the source.

Tests used:
[1] = Shn3 3'UTR reporter inhibitors, dose response, cell-based, Clone20 osteoblasts, firefly luciferase, cherry-picked (AID 624132); type: functional;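 note: firefly luciferase luminescence from reporter carrying the Shn3 3'UTR in osteoblasts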
[2] = HepG2 cell cytotoxicity, dose response, cytotoxicity control for Shn3 inhibitor project, CellTiter-Glo, cherry-picked (AID 624134); type: functional, cell-based
[3] = control 3'UTR Renilla luciferase suppression, dose response, counter-screen for Shn3 inhibitor project, cell-based, Clone20-Shn3RL, cherry-picked (AID 624133); type: functional
[4] = target: T1, Protein disulfide-isomerase (Homo sapiens, UniProt P07237); experiment: PDI inhibitors, insulin aggregation turbidity, dose response, biochemical, absorbance, cherry-picked samples (AID 602350); type: functional
[5] = Fluorescence-based cell-based high throughput dose response assay for inhibitors of the interaction of nucleotide-binding oligomerization domain containing 2 (NOD2) and the receptor-interacting serine-threonine kinase 2 (RIPK2).; type: functional; settings: Homo sapiens
Beta Lactamase [6] = target: T2, Beta Lactamase (Pseudomonas aeruginosa, UniProt Q932Y6); experiment: beta-lactamase reporter inhibitor potency, dose response, artefact control for NOD2-RIPK2 interaction inhibitor project, BLA reporter cells, FRET fluorescence (AID 651552); type: functional, cell-based
[7] = target: T1, Protein disulfide-isomerase; experiment: PDI inhibitors, insulin turbidity readout, dose response, biochemical, absorbance, cherry-picked samples, set 2 (AID 624274); type: functional
Paired box protein Pax-8 = Paired box protein Pax-8 (Homo sapiens, UniProt Q06710); experiment: inhibitors of PAX8-driven TPO luciferase reporter, dose response, RMG-I cells, cherry-pick (AID 687027); type: functional, cell-based;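 note: luciferase reporter driven by Pax8 target thyroperoxidase promoter measured by SteadyGlo luminescence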
[8] = non-specific cell cytotoxicity, dose response, cytotoxicity control for PAX8 inhibitor project, plate reader, dry powder samples (AID 743021); type: functional, cell-based
[9] = NIH/3T3 fibroblast cytotoxicity, dose response, cytotoxicity control for T. cruzi growth inhibitor project, cell-based, cherry-pick samples, set 2 (AID 651817); type: functional; settings: NIH3T3
[10] = miR-122 activators in hepatoma reporter cells, dose response, cell-based, Huh7 psiCHECK-miR122, Renilla luciferase, cherry-picked (AID 651956); type: functional;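 note: huh7 hepatoma cells stably carrying a psiCHECK-2 miR-122 sensor plasmid; renilla luciferase signal reporting endogenous miR-122 activity after 48 h compound exposure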
[11] = HEK293T cytotoxicity, dose response, cytotoxicity control for miR-122 modulator project, cell-based, activator set, cherry-pick (AID 720690); type: functional;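 note: HEK293T human cells scored for general mammalian cytotoxicity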
Beta-lactamase [12] = target: Beta-lactamase (Salmonella choleraesuis (strain SC-B67), UniProt Q5J463); experiment: Epi-absorbance-based counterscreen for selective VIM-2 inhibitors: dose response biochemical high throughput screening assay to identify inhibitors of TEM-1 serine-beta-lactamase.
Beta-lactamase [13] = target: T3, Beta-lactamase (Pseudomonas aeruginosa, UniProt Q79MP6); experiment: IMP-1 metallo-beta-lactamase inhibitors, dose response, selectivity assay for VIM-2 inhibitor project, biochemical, epi-absorbance (AID 1920)
Beta Lactamase [14] = target: T2, Beta Lactamase; experiment: VIM-2 metallo-beta-lactamase inhibitor potency, dose response, biochemical, epi-absorbance readout, selective inhibitors (AID 1919)
Beta-lactamase [15] = target: T3, Beta-lactamase; experiment: […] counterscreen for selective VIM-2 inhibitors: dose response biochemical high throughput screening assay to identify inhibitors of IMP-1 metallo-beta-lactamase.
Beta Lactamase [16] = target: T2, Beta Lactamase; experiment: VIM-2 inhibitor FRET-based artefact check, dose response, artefact control for selective VIM-2 inhibitor project, biochemical, FRET readout, CCF2 substrate (AID 1926)

T2 sequence (Q932Y6 whole entry): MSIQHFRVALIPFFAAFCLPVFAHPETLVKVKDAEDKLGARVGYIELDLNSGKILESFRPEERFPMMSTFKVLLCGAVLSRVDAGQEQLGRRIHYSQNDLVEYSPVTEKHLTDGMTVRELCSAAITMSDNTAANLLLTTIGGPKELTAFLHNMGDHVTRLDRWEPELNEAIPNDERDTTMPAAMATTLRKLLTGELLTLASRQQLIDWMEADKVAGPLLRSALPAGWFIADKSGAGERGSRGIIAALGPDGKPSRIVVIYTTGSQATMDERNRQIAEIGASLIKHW
T3 sequence (Q79MP6 whole entry): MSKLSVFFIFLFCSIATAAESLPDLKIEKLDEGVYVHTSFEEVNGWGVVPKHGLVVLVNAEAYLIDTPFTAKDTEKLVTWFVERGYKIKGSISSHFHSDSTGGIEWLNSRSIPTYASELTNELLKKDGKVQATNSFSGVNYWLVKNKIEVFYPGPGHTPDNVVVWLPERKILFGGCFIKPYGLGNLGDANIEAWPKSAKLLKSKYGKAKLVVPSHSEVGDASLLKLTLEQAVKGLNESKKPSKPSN
T1 sequence (P07237 whole entry, the tested form may be a part): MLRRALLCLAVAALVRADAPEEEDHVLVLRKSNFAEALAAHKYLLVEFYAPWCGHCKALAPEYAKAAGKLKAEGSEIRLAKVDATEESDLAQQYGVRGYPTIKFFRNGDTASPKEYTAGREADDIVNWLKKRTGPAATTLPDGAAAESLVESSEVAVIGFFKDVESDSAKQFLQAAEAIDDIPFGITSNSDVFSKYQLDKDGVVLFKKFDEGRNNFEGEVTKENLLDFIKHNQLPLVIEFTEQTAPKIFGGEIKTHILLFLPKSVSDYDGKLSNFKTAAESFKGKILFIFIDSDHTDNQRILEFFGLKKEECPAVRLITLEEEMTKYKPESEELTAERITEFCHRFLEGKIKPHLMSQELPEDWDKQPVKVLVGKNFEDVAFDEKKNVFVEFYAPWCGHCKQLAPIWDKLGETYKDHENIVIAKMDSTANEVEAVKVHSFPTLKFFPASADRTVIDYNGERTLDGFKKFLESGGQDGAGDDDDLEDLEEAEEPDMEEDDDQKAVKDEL
Beta-lactamase (Salmonella choleraesuis (strain SC-B67), UniProt Q5J463), sequence (Q5J463 whole entry): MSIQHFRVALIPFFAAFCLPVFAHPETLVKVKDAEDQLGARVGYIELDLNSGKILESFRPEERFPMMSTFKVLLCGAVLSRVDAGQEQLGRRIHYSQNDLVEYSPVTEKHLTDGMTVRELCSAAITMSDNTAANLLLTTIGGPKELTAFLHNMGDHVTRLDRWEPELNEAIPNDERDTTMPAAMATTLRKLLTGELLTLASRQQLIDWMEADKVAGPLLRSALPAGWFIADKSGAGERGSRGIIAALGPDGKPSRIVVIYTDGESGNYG
Paired box protein Pax-8, sequence (Q06710 whole entry): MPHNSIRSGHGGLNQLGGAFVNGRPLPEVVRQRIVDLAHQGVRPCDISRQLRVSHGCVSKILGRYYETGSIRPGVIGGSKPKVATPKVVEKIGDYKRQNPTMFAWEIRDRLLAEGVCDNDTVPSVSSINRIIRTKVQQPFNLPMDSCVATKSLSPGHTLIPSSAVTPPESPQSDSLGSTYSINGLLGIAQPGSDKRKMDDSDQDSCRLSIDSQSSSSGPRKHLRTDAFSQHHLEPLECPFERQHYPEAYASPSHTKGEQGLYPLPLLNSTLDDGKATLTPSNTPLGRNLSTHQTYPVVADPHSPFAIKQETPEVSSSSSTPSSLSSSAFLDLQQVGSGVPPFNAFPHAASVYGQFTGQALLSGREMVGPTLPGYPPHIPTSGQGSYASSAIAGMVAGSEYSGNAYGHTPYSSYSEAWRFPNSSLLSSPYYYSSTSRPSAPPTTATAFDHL

CS(=O)(=O)c1ccc(C(=O)OCC(=O)N2CCN(CCC3CCCCC3)CC2)cc1[N+](=O)[O-]
AC50 [1]: 2.41 µM (active) | AC50 [2]: 8.73 µM (active) | AC50 [3]: 5.81 µM (active) | AC50 [4]: < 0.009 µM (active) | IC50 [5]: 1.84 µM (active) | IC50 (Beta Lactamase [6]): 11.6 µM (inactive) | AC50 [7]: 0.009 µM (active) | AC50 (Paired box protein Pax-8): 6.68 µM (active) | AC50 [8]: 27 µM (active)

C[C@@H]1CN([C@@H](C)CO)C(=O)c2cccc(NC(=O)Nc3ccc(C(F)(F)F)cc3)c2O[C@@H]1CN(C)Cc1ccc(Cl)c(Cl)c1
AC50 [9]: 14.2 µM (active)

C[C@@H]1CN([C@@H](C)CO)C(=O)c2cc(C#CC3CCCCC3)cnc2O[C@H]1CN(C)S(=O)(=O)c1cccc(F)c1
AC50 [10]: 13.9 µM (active) | AC50 [11]: 24.6 µM (active)

CCc1nnc(S)n1/N=C/C(C)=C\c1ccccc1
IC50 (Beta-lactamase [12]): > 59.6 µM (inactive) | IC50 (Beta-lactamase [13]): > 59.6 µM (inactive) | IC50 (Beta Lactamase [14]): 1.23 µM (active) | IC50 (Beta-lactamase [15]): > 59.6 µM (inactive) | IC50 (Beta Lactamase [16]): 0.332 µM (active)
